In ChEMBL document CHEMBL4610100, “Jatrophane Diterpenoids from Euphorbia esula as Inhibitors of RANKL-Induced Osteoclastogenesis” (J Nat Prod, 2020):

System: BMDM
Experiment: Anti-osteoporosis activity in C57BL/6 mouse bone marrow macrophages assessed as inhibition of M-CSF/GST-tagged recombinant RANKL-induced osteoclast differentiation measured after 5 days by TRAP staining based assay
Type: functional, cell-based
Conditions: C57BL/6, BMDM, 120 h

IC50 [µM] | Structure (SMILES)
10 | C=C1[C@H](OC(=O)c2ccccc2)[C@@H](O)[C@@H](OC(=O)c2cccnc2)C(C)(C)/C=C/[C@@H](C)C(=O)[C@@]2(O)C[C@H](C)[C@H](OC(C)=O)[C@@H]2[C@H]1OC(C)=O
> 10 | C=C1[C@H](OC(=O)c2ccccc2)[C@@H](OC(C)=O)[C@@H](OC(=O)c2cccnc2)C(C)(C)/C=C/[C@@H](C)C(=O)[C@@]2(O)C[C@H](C)[C@H](OC(C)=O)[C@@H]2[C@H]1OC(C)=O
